{
  "source": "patent US8022036B2",
  "about": "“Use of thymosin alpha 1 for the treatment of immunological diseases” (Sigma-Tau Industrie Farmaceutiche Riunite S.p.A., priority 2006, dated 2011)",
  "key": {"[1]": {"system": "bone marrow cells (GM-DCs, FL-DCs)", "experiment": "Murine DC generation from bone marrow cells, flow cytometry and light microscopy", "type": "cell-based, mouse", "source_text": "(§1) GM-DCs or FL-DCs were obtained from purified CD14+ monocytes from healthy donors or transplanted patients (1 month post-HSCT) cultured in Iscove's modified medium for 7-9 days, in the presence of rGM-CSF (Schering-Plough, Milan, Italy) and rIL-4 (Peprotech, Inalco, Milan, Italy) or FLT3-L (Immunex Corporation, Seattle, Wash.) (Blood. 2004; 103:4232-4239). DC recovery was between 20-30% reduced in cultures from transplanted patients. Murine GM-DCs or FL-DCs were obtained from bone marrow cells for 7-9 days, as described (Blood. 2004; 103:4232-4239). Thymosin alpha 1 and sThymosin alpha 1 were added to the cultures at 20 ng/mL. DCs (>99% CD11c+ consisting of 90-95% CD8-, 5-10% CD8+, and 1-5% B220+ cells) were purified from spleens (spDCs) by magnetic-activated sorting using CD11c MicroBeads and MidiMacs (Miltenyi Biotech). DC populations were further separated into CD8−, CD8+ and B220+ fractions by means of CD8 or B220 MicroBeads (Miltenyi Biotech). DCs were pulsed in serum-free Iscove medium for 24 hours with live unopsonized Aspergillus conidia or Zymosan from Saccharomyces cerevisiae (Sigma) or CpG-ODN 2006 as described.7 Phagocytosis was done as described (Blood. 2004; 103:4232-4239). Photographs were taken using a high Resolution Microscopy Color Camera AxioCam, using the AxioVision Software Rel. 3.1 (Carl Zeiss, Milan, Italy).\nDCs were analyzed for antigen expression with a FACScan flow cytofluorometer (Becton Dickinson, Mountain View, Calif.) equipped with CELLQuest™ software and using conjugated mAbs from PharMingen (Blood. 2004; 103:4232-4239).\nTo assess how Thymosin alpha 1 would affect the phenotypic and functional properties of murine DCs, bone marrow cells were grown for 7-9 days in medium containing GM-CSF/IL4 or FLT3L, in the presence of Thymosin alpha 1 or a control, scrambled peptide. After maturation, cells were analyzed by flow cytometry and light microscopy (FIG. 1A).\n(A) Surface expression of CD11c, CD 11b and B220 on DCs derived from bone marrow of C57BL6, TLR9−/− or IFN-aβR−/−mice and cultured with GM-CSF/IL-4 (GM-DCs) or FLT3L (FL-DCs) in the presence of Thymosin alpha 1 (+) or the scrambled peptide ( ). Percent of double positive cells is indicated."}, "GM-DCs or FL-DCs": {"system": "GM-DCs or FL-DCs", "experiment": "Cytokine production and T cell priming by human DCs (ELISA)", "type": "cell-based", "source_text": "as §1\n(§2) Cytokine content was assessed by enzyme-linked immunosorbent assays (Endogen Human Elisa Kits, R&D Systems and Euroclone, Milan, Italy). AID EliSpot assay kits (Amplimedical, Buttigliera Alta, Turin, Italy) were used on purified splenic CD4+ Tcells cocultured with conidia-pulsed DCs for 5 days to enumerate cytokine-producing cells (Blood. 2003; 102:3807-3814). 1-MT was used at 2 μM.\n(C) Cytokine production (pg/mL by ELISA) by Thymosin alpha 1-induced DCs from healthy donors cultured in serum-free medium (1×10^6 cells/mL) with unopsonized Aspergillus conidia (5×10^5/mL) or 10 μg/mL Zymosan or 2 μg/mL CpG-B ODN 2006 for 24 hours. The data shown are aggregated results from three independent experiments and presented in the mean±SD. […]"}, "IDO": {"system": "IDO", "experiment": "IDO expression (immunoblotting) and kynurenine production in DCs", "type": "cell-based, mouse", "method": "IDO expression and functional activity were assessed as described in Nat. Immunol. […] Generation, purification and activity of T reg cells Splenic CD4+ T-cells were cocultured with conidia-pulsed DCs for 5 days […] before flow cytometry or ELISPOT assay. 1-MT (Sigma-Aldrich) was used at […].\nCells were assessed for IDO protein expression by immunoblotting and for kynurenine production. Positive and negative controls consisted of IDO protein-expressing MC24 transfectants and mock-transfected MC22 cells, respectively (not shown in the figure)."}, "[2]": {"system": "methylcholanthrene-induced fibrosarcoma", "conditions": "mice; cited from earlier work"}, "splenic CD4+ T cells": {"system": "splenic CD4+ T cells", "experiment": "Th1/T reg priming in vitro of splenic CD4+ T cells by Aspergillus-pulsed DCs (ELISPOT, flow cytometry)", "type": "cell-based, mouse", "method": "IDO expression and functional activity were assessed as described in Nat. Immunol. 2002; 3:1097-1101. Generation, purification and activity of T reg cells Splenic CD4+ T-cells were cocultured with conidia-pulsed DCs for 5 days […] before flow cytometry or ELISPOT assay. 1-MT (Sigma-Aldrich) was used at 2 μM. CD4+CD25+ and CD4+CD25− cells (>90% pure on FACS analysis) were separated by magnetic cell sorting from lung and TLN (J. Immunol. 2006; 176:1712-1723). For T reg cell inhibition, 5×10^4 TLN T reg cells were added to 3×10^5 CD4+CD25− cells, both from transplanted mice, stimulated with 3×10^4 autologous Aspergillus conidia-pulsed spDCs or with or 1.5×10^5 allogeneic spDCs from naïve donor mice for five days before H^3-thymidine labeling. Purified peritoneal CD 11b+Gr−1+PMN (>98% pure on FACS analysis) (2×10^6) were exposed to resting conidia in the presence of 4×10^5 CD4+CD25+ for 60 min for oxidant production or 24 hours for cytokine production (J. Immunol. 2006; 176:1712-1723).\nas §2\n(A) Frequency of IFN-γ-/IL-10-producing splenic CD4+ T cells activated by Aspergillus-pulsed Thymosin alpha 1-treated GM-DCs or FL-DCs. 1-MT was present in selected cultures. Plates were read with the AID-EliSpot Reader System (Amplimedical). Values are means±SE per 10^6 cells of samples from 3-5 experiments, calculated using replicates of serial twofold dilutions of cells. (*) P<0.05, conidia-exposed versus unexposed cells; (**) P<0.05, thymosin-exposed versus unexposed cells.\n(B) Phenotypic analysis of CD4+ cells cultured alone (−) or as in (A). Numbers represent the percentage of double positive cells."}, "lymphosarcoma cells": {"system": "lymphosarcoma cells", "conditions": "BALB/c mice; cited from earlier work"}},
  "note": "No end group written: not given here.",
  "data": [
    {"substance": "Thymosin alpha 1: naturally occurring thymic peptide; supplied as purified, endotoxin-free sterile lyophilized acetylated polypeptide from SciClone Pharmaceuticals (Ac-SDAAVDTSSEITTKDLKEKKEVVEEAEN; UniProt P06454 2-29, looked up)", "values": [
      {"measurement": "B220+CD11c+ cells in FL-DCs", "setting": "[1]; FLT3L culture, 20 ng/mL", "value": "not increased"},
      {"measurement": "total yield of cells", "setting": "[1]; GM-CSF/IL-4 culture, 20 ng/mL", "value": "did not affect total yield of cells"},
      {"measurement": "expansion of pDCs in GM-DCs from TLR9-/- or IFN-aβR-/- mice", "setting": "[1]; GM-DCs from knockout mice", "value": "not observed"},
      {"measurement": "expansion of B220+CD11c+ cells", "setting": "[1]; Thymosin alpha 1 alone, without GM-CSF/IL-4 or FLT3L", "value": "not observed"},
      {"measurement": "occurrence of pDCs (B220+CD11c+ cells) in GM-DCs", "setting": "[1]; bone marrow cells, GM-CSF/IL-4, 7-9 days, peptide 20 ng/mL", "value": "greatly increased the occurrence of pDCs in GM-DCs"},
      {"measurement": "IL-10 production by GM-DCs", "setting": "GM-DCs or FL-DCs; healthy donors, Aspergillus conidia, 24 hours", "value": "produced increased levels of IL-10"},
      {"measurement": "IFN-a production", "setting": "GM-DCs or FL-DCs; in response to Aspergillus conidia, Zymosan or CpG ODN", "value": "mainly produced by FL-DCs or Thymosin alpha 1-treated GM-DCs"},
      {"measurement": "priming for IL-10-producing CD4+ T cells", "setting": "GM-DCs or FL-DCs; in vitro, Thymosin alpha 1-treated GM-DCs", "value": "primed for IL-10-producing CD4+ T cells in vitro"},
      {"measurement": "induction of IDO protein and function in DCs from TLR9-/- or IFN-aβR-/- mice", "setting": "IDO; DCs from knockout mice", "value": "not observed"},
      {"measurement": "induction of functional IDO (protein, tryptophan to kynurenine conversion)", "setting": "IDO; FL-DCs and GM-DCs", "value": "Induction of functional IDO by Thymosin alpha 1 in both FL-DCs and GM-DCs was confirmed"},
      {"measurement": "pulmonary metastases", "setting": "[2]", "value": "reduced"},
      {"measurement": "priming for IL-10-producing cells by FL-DCs", "setting": "splenic CD4+ T cells; Aspergillus-pulsed FL-DCs, 5 days coculture", "value": "increased priming"},
      {"measurement": "priming for IFN-γ-/IL-10-producing CD4+ T cells by GM-DCs", "setting": "splenic CD4+ T cells; Aspergillus-pulsed GM-DCs, 5 days coculture", "value": "increased priming"},
      {"measurement": "CD4+CD25+ T cells positive for intracellular Foxp3 and surface CTLA-4", "setting": "splenic CD4+ T cells; cultured with Thymosin alpha 1-induced DCs", "value": "a significant proportion of the CD4+CD25+ T cells stained positive for intracellular Foxp3 and surface CTLA-4"},
      {"measurement": "local sarcoma growth, liver and lung metastases of lymphosarcoma cells", "setting": "lymphosarcoma cells", "value": "significantly reduced"}
    ]}
  ]
}
